Data taken from EP0429304A2, “Pyridone-carboxylic acid derivatives and their use as veterinary medicines” (SHIONOGI SEIYAKU KABUSHIKI KAISHA trading under the name of …, priority 1989, dated 1991).
Read-outs that look alike come from different tables or passages of the source.

Experiments:
[1] = system: Mycoplasma synoviae (MS) F10-2as; test: In vitro sensitivity test (liquid dilution method); type: cell-based; details: 37°C, 7 days
Procedure, shortened: (§1)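 Bacteria were of animal origin. MS strains were grown by liquid dilution in Frey medium with 12 % pig-serum and 0.01 % βNAD at 37°C for 7 days. S.au was tested by agar dilution on Mueller Hinton agar, 37°C for 20 to 24 hours. P.pis was grown on 1.5 % NaCl heart infusion agar at 25°C for 40 to 48 hours.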

[2] = system: Salmonella typhimurium (S.typhi) 13311; test: In vitro sensitivity test (agar dilution method); type: cell-based; details: 37°C, 20 to 24 hours
[3] = system: Pasteurella piscicida (P.pis) No. 2; test: In vitro sensitivity test; type: cell-based; details: 25°C, 40 to 48 hours
Procedure, shortened: as §1

[4] = system: TS-resistant strain of MG; type: in vivo, chicken; details: in vivo, po
[5] = system: H.pg strain (i.e. 221); test: Experimental H.pg infection to chicken, through bait; type: in vivo; details: 28-days chicken infected with 4 x 10⁸ CFU/fowl, dissection, 10th day after inoculation
Description: (§2) In these experiments, the compound (I) was applied to the designated animals by (1) oral administration, (2) incorporation into baits and (3) intramuscular injection, the details of which are explained below.

[6] = system: H.pp (otherwise called Actinobacillus pleuropneumoniae) strain M-1; test: Experimental H.pp infection to pig, through injection; type: in vivo; details: injection to thigh muscle one time, Dose 10 mg/kg; dissection 6 days after inoculation
Protocol: as §2
(3) Preparation of the MG infected fowls was performed in the same manner as in (1) above. Infection of H.pp (otherwise called Actinobacillus pleuropneumoniae) to cause pleuropneumonia in pig was performed by inoculating 5 ml of a fresh cultured strain (i.e. M-1) of H.pp to each nasopharyngeal of some 45 days pigs, each weighing 4 to 9 kg (4 to 5 pigs/group), followed by injection of the test compounds to each thigh muscle at a designated volume one time. Pigs were dissected 6 days after the inoculation. The evaluation of the antimicrobial activity was made by observation of the pneumonia symptomes in air sacs, number of dead body and degree of nodosity in air sacks on dissection.

[7] = Acute toxicity (LD50); details: in vivo, read-out: LD₅₀
Description: The compounds (I) according to the invention show a higher antimicrobial activity than the control or commercially available antimicrobial agents with a smaller dosage. […]

CNCC12CCCC1CN(c1c(F)cc3c(=O)c(C(=O)O)cn(C4CC4)c3c1F)C2.Cl (centres unmarked) [I-5]
0.2 µg/ml: In vitro Sensitivity Test MS F10-2as [1]
2000 mg/kg: LD50 ([7]; po, Mouse (B6C3F₁, male), p.o.)
0/4: Number of pig died or developed dyspnea/Number of pig tested [6] | Number of pig having nodi/Number of pig tested [6]
500 mg/kg: LD50 ([7]; po, Chicken ( -days), p.o.)
1: Infectious index Right air sack ++ ([4]; 1.56 mg/kg) | Infectious index Right air sack +++ ([4]; 1.56 mg/kg)
1.56 ppm/day: Effective concentration to prevent pituita [5]
about 3.13 mg/kg: complete inihibition of the lesions in air sac at a concentration of [4]
200 mg/kg: LD50 ([7]; ip, Mouse (B6C3F₁, male), i.p.)
0.2 µg/mL: In vitro Sensitivity Test S.typhi 13311 [2]
two times more effective than ERFX: antimicrobial activity compared with ERFX [4]
2: Infectious index Right air sack - ([4]; 1.56 mg/kg) | Number of fowl having air sack lesions ([4]; 1.56 mg/kg)
5: Infectious index Left air sack - ([4]; 3.13 mg/kg) | Infectious index Right air sack - ([4]; 3.13 mg/kg) | Infectious index Left air sack - ([4]; 6.25 mg/kg) | Infectious index Right air sack - ([4]; 6.25 mg/kg) | Infectious index Left air sack - ([4]; 25 mg/kg) | Infectious index Right air sack - ([4]; 25 mg/kg)
4: Infectious index Left air sack - ([4]; 1.56 mg/kg)
0: Infectious index Left air sack + ([4]; 1.56 mg/kg) | Infectious index Left air sack ++ ([4]; 1.56 mg/kg) | Infectious index Left air sack +++ ([4]; 1.56 mg/kg) | Infectious index Right air sack + ([4]; 1.56 mg/kg) | Infectious index Left air sack + ([4]; 3.13 mg/kg) | Infectious index Left air sack ++ ([4]; 3.13 mg/kg) | Infectious index Left air sack +++ ([4]; 3.13 mg/kg) | Infectious index Right air sack + ([4]; 3.13 mg/kg) | Infectious index Right air sack ++ ([4]; 3.13 mg/kg) | Infectious index Right air sack +++ ([4]; 3.13 mg/kg) | Number of fowl having air sack lesions ([4]; 3.13 mg/kg) | Infectious index Left air sack + ([4]; 6.25 mg/kg) | Infectious index Left air sack ++ ([4]; 6.25 mg/kg) | Infectious index Left air sack +++ ([4]; 6.25 mg/kg) | Infectious index Right air sack + ([4]; 6.25 mg/kg) | Infectious index Right air sack ++ ([4]; 6.25 mg/kg) | Infectious index Right air sack +++ ([4]; 6.25 mg/kg) | Number of fowl having air sack lesions ([4]; 6.25 mg/kg) | Infectious index Left air sack + ([4]; 25 mg/kg) | Infectious index Left air sack ++ ([4]; 25 mg/kg) | Infectious index Left air sack +++ ([4]; 25 mg/kg) | Infectious index Right air sack + ([4]; 25 mg/kg) | Infectious index Right air sack ++ ([4]; 25 mg/kg) | Infectious index Right air sack +++ ([4]; 25 mg/kg) | Number of fowl having air sack lesions ([4]; 25 mg/kg)
1.56 µg/mL: In vitro Sensitivity Test P.pis No. 2 [3]
